Where “and” joins values, the source holds several entries; their conditions need not be identical. Equal values may be shown once. Read-outs that look alike come from different tables or passages of the source.
Experiments:
[1] = tested on: chick chorioallantoic membrane (CAM) blood vessel branch points; assay: Chick chorioallantoic membrane (CAM) model of angiogenesis; assay type: in vivo
Procedure: In vivo neovascularization was examined by methods described previously. 9-12 Ten-day-old chick embryos were purchased from SPAFAS (Preston, Conn.) and incubated at 37° C. with 55% relative humidity. A hypodermic needle was used to make a small hole in the shell concealing the air sac, and a second hole was made on the broad side of the egg, directly over an avascular portion of the embryonic membrane that was identified by candling. A false air sac was created beneath the second hole by the application of negative pressure at the first hole, causing the CAM to separate from the shell. […] Thyroid hormone, hormone analogs, FGF2 or control solvents, and inhibitors were then applied to the disks and the disks allowed to dry. The disks were then suspended in PBS and placed on growing CAMs. […] At 24 hours, the MAPK cascade inhibitor PD 98059 was also added to CAMs topically by means of the filter disks. […] The number of vessel branch points contained in a circular region equal to the area of each filter disk were counted. […] In addition, each experiment was performed 3 times. The resulting angiogenesis index is the mean±SEM of new branch points.

[2] = tested on: matrigel plug angiogenesis; assay: Mouse matrigel model of angiogenesis (plug hemoglobin); assay type: in vivo, mice (C57BL/6NCr); details: for inhibition in vivo at 10 µg/plug: Mus musculus, FGF 100 ng + test substance 10 μg/plug; for inhibition in vivo at 10 µg/plug / inhibition of FGF-induced angiogenesis (in words): numbers are Tetrac analogs of Example 13
Procedure: Normal male mice (C57BL/6NCr) 6-8 weeks of age and weighing ˜20 g were purchased from Taconic farm. Animals were housed 4 per cage, in controlled conditions of temperature (20-24° C.); humidity (60-70%) and 12 hrs. light/dark cycle provided with food and water ad libitum. […] Aliquots of matrigel were placed into cold polypropylene tubes to prevent the matrigel from solidifying and the angiogenesis promoter added to matrigel with or without agonist. Mice were treated daily. Matrigel was subcutaneously injected as triple injection per animal at 100 μL/animal. At day 14 post plug implant all animals were killed in CO2 chamber and matrigel plugs were collected. Plug hemoglobin content was analyzed from three implants/mice (n=6 per group) to measure angiogenesis.
The matrigel plugs dissected from the mice were carefully stripped of any remaining peritoneum. The plugs were placed into 0.5 mL tube of ddH2O and homogenized for 5-10 min. […] Absorbance was read with a Microplate Manager ELISA reader at 540 nm. […] Hemoglobin concentration is a reflection of the number of blood vessels in the plugs.

[3] = Gallus gallus, read-out: Mean % of stimulation (comparing to PBS)
[4] = 0.01 uM; n = 8 per group; PBS (Control) 89.4 ± 9.3
[5] = 0.1 uM; n = 8 per group; PBS (Control) 89.4 ± 9.3
[6] = 10 μg/matrigel plug, numbers are T4 analogs of Example 12, n = 6-7, Control 0.3 ± 0.1
[7] = numbers are T4 analogs of Example 12
[8] = T4 + test substance, each 10 μg/matrigel plug, n = 25, T4 alone 1.2 ± 0.4
[9] = 1 μM; numbers are T4 analogs of Example 12
[10] = 1 μM; numbers are T4 analogs of Example 12; mean ± SEM, n = 8; PBS 73 ± 6
[11] = 10 μg/matrigel plug, numbers are T4 analogs of Example 12

CC(C)[Si](OC(=O)Cc1cc(I)c(Oc2cc(I)c(OCC3CO3)c(I)c2)c(I)c1)(C(C)C)C(C)C (stereo not drawn)
melting point: 120 °C

O=C(Cc1cc(I)c(Oc2cc(I)c(OCC3CO3)c(I)c2)c(I)c1)OCC1CO1 (stereo not drawn)
melting point: 116 °C

CC(C)(C)OC(=O)NC(Cc1cc(I)c(Oc2cc(I)c(OCC3CO3)c(I)c2)c(I)c1)C(=O)OCC1CO1 (stereo not drawn) (hydrate or solvate) [T4 analog 14, Oxiran-2-ylmethyl-2-(tert-butoxycarbonylamino)-3-(4-(3,5-diiodo-4-(oxiran-2-ylmethoxy)phenoxy)-3,5-diiodophenyl)propanoate]
melting point: 105 °C

CC(C)[Si](OC(=O)C(Cc1cc(I)c(Oc2cc(I)c(OCC3CO3)c(I)c2)c(I)c1)NC(=O)OC(C)(C)C)(C(C)C)C(C)C (stereo not drawn) (hydrate or solvate) [T4 analog 15, Triisopropylsilyl-2-(tert-butoxycarbonylamino)-3-(4-(3,5-diiodo-4-(oxiran-2-ylmethoxy)phenoxy)-3,5-diiodophenyl)propanoate]
melting point: 109 °C

CC(C)(C)OC(=O)NC(Cc1cc(I)c(Oc2cc(I)c(O)c(I)c2)c(I)c1)C(=O)O (stereo not drawn) [Compound 7]
change in vivo at 0.1 µM [1, 3]: 137 ± 7.5%

CC(=O)NC(Cc1cc(I)c(Oc2cc(I)c(OC(C)=O)c(I)c2)c(I)c1)C(=O)O (stereo not drawn) [Compound 9]
change in vivo at 0.1 µM ([1]; Gallus gallus; read-out: Mean % of stimulation (comparing to PBS)): 67.1 ± 5%

O=C(O)Cc1cc(I)c(Oc2cc(I)c(OCC3CO3)c(I)c2)c(I)c1 (stereo not drawn) [Compound 9]
inhibition in vivo at 10 µg/plug [2]: 100 ± 12%

O=C(O)CCc1cc(I)c(Oc2ccc(O)cc2)c(I)c1 [DITPA, 3,5-diiodothyropropionic acid]
ANGIOGENESIS INDEX [1, 4]: 133.0 ± 11.6
ANGIOGENESIS INDEX [1, 5]: 167.3 ± 12.7
ANGIOGENESIS INDEX ([1]; 0.2 mM; n = 8 per group; PBS (Control) 89.4 ± 9.3): 117.9 ± 5.6

Cc1cc(OCC(=O)O)cc(C)c1Cc1ccc(O)c(C(C)C)c1 [GC-1, 3,5-dimethyl-4-(4′-hydroxy-3′-isopropylbenzyl)-phenoxy acetic acid]
ANGIOGENESIS INDEX [1, 4]: 169.6 ± 11.6
ANGIOGENESIS INDEX [1, 5]: 152.7 ± 9.0

O=C(O)C(Cc1cc(I)c(Oc2cc(I)c(O)c(I)c2)c(I)c1)NC(c1ccccc1)(c1ccccc1)c1ccccc1 (stereo not drawn) [PRIAB2]
Branch pts ± SEM ([1]; 0.1 μM; PBS 76.0 ± 8.5): 136.0 ± 18.1

CNC(Cc1cc(I)c(Oc2cc(I)c(O)c(I)c2)c(I)c1)C(=O)O (stereo not drawn) [PRIAB6]
Branch pts ± SEM ([1]; 0.1 μM; PBS 76.0 ± 8.5): 136.2 ± 12.4

CCNC(Cc1cc(I)c(Oc2cc(I)c(O)c(I)c2)c(I)c1)C(=O)O (stereo not drawn) [PRIAB12]
Branch pts ± SEM ([1]; 0.1 μM; PBS 76.0 ± 8.5): 121.7 ± 13.6

CC(C)(C)OC(=O)NC(Cc1cc(I)c(Oc2cc(I)c(O)c(I)c2)c(I)c1)C(=O)O (stereo not drawn) [T4 analog 7, 2-[(Tert-butoxycarbonyl)amino]-3-[4-(4-hydroxy-3,5-diiodophenoxy)-3,5-diiodophenyl]propanoic acid]
Branch pts ± SEM ([1]; 0.1 μM; PBS 65.2 ± 14.9): 173 ± 9.9

CNC(Cc1cc(I)c(Oc2cc(I)c(O)c(I)c2)c(I)c1)C(=O)[O-].O.O.[K+] (stereo not drawn) [T4 analog 10, Potassium 3-[4-(4-hydroxy-3,5-diiodophenoxy)-3,5-diiodophenyl]-2-(methylamino)propanoate dihydrate]
Mean % of stimulation (comparing to PBS) ([1]; 0.1 μM; numbers are T4 analogs of Example 12): 43.8 ± 6.5%
Mean Branch points ([1]; 0.1 μM; numbers are T4 analogs of Example 12; mean ± SEM, n = 8; PBS 73 ± 6): 105 ± 7
Mean stimulation of angiogenesis (%) ([2]; 10 μg/matrigel plug, numbers are T4 analogs of Example 12, dihydrate): 87% and 87 ± 33%
Hemoglobin (mg/mL) ± SEM [2, 6]: 0.8 ± 0.2 mg/mL

CCNC(Cc1cc(I)c(Oc2cc(I)c(O)c(I)c2)c(I)c1)C(=O)O (stereo not drawn) [T4 analog 11, 2-(Ethylamino)-3-[4-(4-hydroxy-3,5-diiodophenoxy)-3,5-diiodophenyl]propanoic acid]
effect on angiogenesis, representative illustrations FIG. 23 (in words) [1, 7]: proangiogenesis

CCNC(Cc1cc(I)c(Oc2cc(I)c(O)c(I)c2)c(I)c1)C(=O)OCC (stereo not drawn) [T4 analog 12, Ethyl-2-(ethylamino)-3-[4-(4-hydroxy-3,5-diiodophenoxy)-3,5-diiodophenyl]propanoate]
Mean Branch points ([1]; FGF (1.25 μg/ml) + T4 analog 12 (0.1 μM); PBS 73 ± 6): 46 ± 2
effect on FGF and T4 activity, CAM and matrigel assays (in words) ([1]; T4 analog of Example 12): entirely inhibiting FGF and T4 activity
effect on angiogenesis, representative illustrations FIG. 23 (in words) [1, 7]: anti-angiogenic
Hemoglobin (mg/mL) ± SEM [2, 8]: 0.4 ± 0.1 mg/mL

CC(C)[Si](OC(=O)C(Cc1cc(I)c(Oc2cc(I)c(O)c(I)c2)c(I)c1)NC(=O)OC(C)(C)C)(C(C)C)C(C)C (stereo not drawn) [T4 analog 13, Triisopropylsilyl-2-(tert-butoxycarbonylamino)-3-(4-(4-hydroxy-3,5-diiodophenoxy)-3,5-diidoclophenyl)propanoate]
Mean % of stimulation (comparing to PBS) [1, 9]: 4.1 ± 6.5%
Mean Branch points [1, 10]: 76 ± 7
Mean % Inhibition ([1]; FGF (1.25 μg/ml) + test substance, 10 μg/plug per footnote; numbers are Tetrac analogs of Example 13): 44 ± 13%
Mean Branch points ([1]; FGF (1.25 μg/ml) + test substance, 10 μg/plug per footnote; numbers are Tetrac analogs of Example 13; n = 8; PBS 73 ± 6, FGF 130 ± 11): 105 ± 7
Mean stimulation of angiogenesis (%) [2, 11]: 0 ± 17%
Hemoglobin (mg/mL) ± SEM [2, 6]: 0.3 ± 0.1 mg/mL

CC(C)(C)OC(=O)NC(Cc1cc(I)c(Oc2cc(I)c(OCC3CO3)c(I)c2)c(I)c1)C(=O)OCC1CO1 (stereo not drawn) [T4 analog 14, Oxiran-2-ylmethyl-2-(tert-butoxycarbonylamino)-3-(4-(3,5-diiodo-4-(oxiran-2-ylmethoxy)phenoxy)-3,5-diiodophenyl)propanoate]
Mean % of stimulation (comparing to PBS) [1, 9]: 56.2 ± 7.5%
Mean Branch points [1, 10]: 114 ± 11
Mean stimulation of angiogenesis (%) [2, 11]: 0 ± 17%
Hemoglobin (mg/mL) ± SEM [2, 6]: 0.3 ± 0.1 mg/mL

CC(C)[Si](OC(=O)C(Cc1cc(I)c(Oc2cc(I)c(OCC3CO3)c(I)c2)c(I)c1)NC(=O)OC(C)(C)C)(C(C)C)C(C)C (stereo not drawn) [T4 analog 15, Triisopropylsilyl-2-(tert-butoxycarbonylamino)-3-(4-(3,5-diiodo-4-(oxiran-2-ylmethoxy)phenoxy)-3,5-diiodophenyl)propanoate]
Mean Branch points [1, 10]: 98 ± 8
change in vivo at 1 µM [1, 3]: 34.2 ± 7%
effect on angiogenesis, representative illustrations FIG. 23 (in words) [1, 7]: no effect
Mean stimulation of angiogenesis (%) [2, 11]: 0 ± 17%
Hemoglobin (mg/mL) ± SEM [2, 6]: 0.3 ± 0.1 mg/mL

CC(C)(C)OC(=O)Cc1cc(I)c(Oc2cc(I)c(O)c(I)c2)c(I)c1 [Tetrac analog 3, tert-Butyl-2-(4-(4-hydroxy-3,5-diiodophenoxy)-3,5-diiodophenyl)acetate]
inhibition of FGF-induced angiogenesis (in words) [2]: strong

O=C(Cc1cc(I)c(Oc2cc(I)c(O)c(I)c2)c(I)c1)NC1CCCCC1 [Tetrac analog 4, N-cyclohexyl-2-(4-(4-hydroxy-3,5-diiodophenoxy)-3,5-diiodophenyl)acetamide]
inhibition of angiogenesis in the CAM assay (in words) ([1]; numbers are Tetrac analogs of Example 13): not as strong as compounds 3, 5, 7, and 9
inhibition in vivo at 10 µg/plug [2]: 104 ± 12%
inhibition of FGF-induced angiogenesis (in words) [2]: strong

O=C(Cc1cc(I)c(Oc2cc(I)c(OCCCl)c(I)c2)c(I)c1)NC1CCCCC1 [Tetrac analog 15, 2-(4-(4-(2-chloroethoxy)-3,5-diiodophenoxy)-3,5-diiodophenyl)-N-cyclohexylacetamide]
melting point: 263 °C

FGF2: human recombinant FGF2, basic fibroblast growth factor, standard proangiogenic agent
ANGIOGENESIS INDEX ([1]; 1 uM; n = 8 per group; PBS (Control) 89.4 ± 9.3): 155 ± 9
Branch pts ± SEM ([1]; 1.25 μg/ml; PBS 76.0 ± 8.5): 137.9 ± 7.5
Mean % of stimulation (comparing to PBS) ([1]; FGF 1.25 μg/mL alone): 178.1 ± 7.5%
Mean Branch points ([1]; FGF 1.25 μg/mL alone; n = 8; PBS 73 ± 6): 130 ± 11
stimulation of branch formation ([1]; FGF2 1 μg/mL): 2.2 fold
increase in angiogenesis ([1]; FIG. 5, 3 experiments; concentration not given): 2 fold
Hemoglobin (mg/mL) ± SEM ([2]; FGF 100 ng alone, Control 0.3 ± 0.1): 2.4 ± 0.4 mg/mL

tetraiodothyroacetic acid [Tetrac]
Mean inhibition of angiogenesis (%) ([2]; T4 + test substance, each 10 μg/matrigel plug): 89 ± 11%
Hemoglobin (mg/mL) ± SEM [2, 8]: 0.4 ± 0.1 mg/mL

— patent US8802240B2, “Uses of formulations of thyroid hormone analogs and nanoparticulate forms thereof to increase chemosensitivity and radiosensitivity in tumor or cancer cells” (Nanopharmaceuticals LLC, priority 2011, dated 2014)
